Like-named read-outs stand apart in the source and are kept apart here.
Experiments:
[1] = target: recombinant HIV-1 integrase (Human immunodeficiency virus type 1 group M subtype B (isolate HXB2) (HIV-1), UniProt P04585); assay: Assay 4: 3dQ assay, inhibition of HIV integrase mediated 3'-processing; format: biochemical
Procedure: The inhibition of HIV integrase mediated 3′-processing was determined in a biochemical assay. For this a short (˜20 bp) double stranded U5 LTR substrate was generated by hybridization of 5 μM 5′-[…]-3′-alx488 (SEQ ID 1) with 7 μM dabcyl-5′-[…]-3′ (SEQ ID 2) in 10 mM Tris pH 8.0, 100 mM NaCl (heating to 95° C. and gradually cooling over 30′ to RT). Integrase inhibition was determined by incubation of 150 nM recombinant HIV-1 integrase, 100 nM recombinant LEDGF and 50 nM U5 LTR substrate in reaction buffer (25 mM MOPS pH7.2, 10 mM DTT, 10 mM MgCl2, 15 mM potassium glutamate and 2.5% DMSO) in the presence or absence of different concentrations test compounds. After 2 h at 37° C. reactions were stopped by adding ⅕ volumes of 0.5% SDS and fluorescence was measured (excitation at 488 nm, emission at 538 nm) and expressed as the inhibitor concentration required for 50% inhibition of the HIV integrase (IC50—see Table 1).

HIV-1 IIIB = assay: Assay 1: inhibitory activity on HIV replication, wild type (MT4-LTR-EGFP cells); format: cell-based; conditions: Human immunodeficiency virus 1, 72 h, 3 days, EGFP fluorescence
Text: (§1) Assay 1—Inhibitory Activity on HIV Replication Wild Type, N155H Mutant, and Q148R Mutant
(§2) MT4-LTR-enhanced green fluorescent protein (EGFP) cells were obtained by transfecting MT4 cells with a selectable construct encompassing the coding sequences for the HIV LTR as a promoter for the expression of EGFP and subsequent selection of permanently transfected cells. MT4-cytomegalovirus (CMV)-EGFP cells were obtained by selection for permanently transformed MT4 cells with a CMV-EGFP reporter gene. Cell lines were maintained in RPMI 1640 medium supplemented with 10% heat-inactivated fetal calf serum, 2 mM L-glutamine, 0.1% NaHCO3, and antibiotics (0.02% gentamicin and 0.8% G418) and incubated in a humidified incubator with a 5% CO2 atmosphere at 37° C.
(§3) The antiviral activity of different inhibitors was determined in a cell-based HIV-1 replication assay. MT4-LTR-EGFP cells (150,000 cells/ml) were infected with HIV-1 (IIIB or site-directed mutant strains N155H or Q148R; multiplicity of infection [MOI] of 0.0025) in the presence or absence of inhibitor. After 3 days of incubation, the inhibition of HIV replication was quantified by measuring EGFP fluorescence, and expressed as the inhibitor concentration required for 50% inhibition of HIV-1 replication in cell culture (IIIB EC50—see Table 1).

[2] = Assay 2: cellular cytotoxic activity; format: cell-based; conditions: human, mock-infected MT4-CMV-EGFP cells, EGFP fluorescence
Text: MT4-LTR-enhanced green fluorescent protein (EGFP) cells were obtained by transfecting MT4 cells with a selectable construct encompassing the coding sequences for the HIV LTR as a promoter for the expression of EGFP and subsequent selection of permanently transfected cells. MT4-cytomegalovirus (CMV)-EGFP cells were obtained by selection for permanently transformed MT4 cells with a CMV-EGFP reporter gene. Cell lines were maintained in RPMI 1640 medium supplemented with 10% heat-inactivated fetal calf serum, 2 mM L-glutamine, 0.1% NaHCO3, and antibiotics (0.02% gentamicin and 0.8% G418) and incubated in a humidified incubator with a 5% CO2 atmosphere at 37° C. Assay 2—Cellular Cytotoxic Activity The cytotoxicity of inhibitors was determined in parallel to the experiments under assay 1 on mock-infected MT4-CMV-EGFP cells (150,000 cells/ml) cultured in the presence or absence of different concentrations of compounds of formula I. After 3 days of incubation, inhibition of cell proliferation was quantified by measuring the EGFP fluorescence and expressed as the compound concentration that inhibits cell growth by 50% (CC50—see Table 1).

[3] = tested on: HIV-1 site-directed mutant strain N155H; assay: Assay 1: inhibitory activity on HIV replication, N155H mutant (MT4-LTR-EGFP cells); format: cell-based; conditions: Human immunodeficiency virus 1, 72 h, read-out: N155H EC50
Text: as §1, §2
(§4) N155H and Q148R mutant Integrase coding sequences were constructed in the pUC19-5′HXB2D vector (XbaI-SalI fragment of pHXB2D), containing the HIV-1 clone HXB2D IN coding sequence, by using a QuikChange site-directed mutagenesis kit (Stratagene, La Jolla, Calif.) and high-performance liquid chromatography-purified primers (Genset Oligos, La Jolla, Calif.). Altered plasmid sequences were confirmed by dideoxyribose sequencing.
(§5) For generation of site directed mutant (SDM) virus stocks, MT4 cells were subcultured at a density of 250,000 cells/ml on the day before transfection. Cells were pelleted and resuspended in phosphate-buffered saline at a concentration of 3.1×10^6 cells/ml. A 0.8-ml portion ([…]) was used for each transfection. Transfections were performed with a Bio-Rad Gene Pulser (Bio-Rad, Hercules, Calif.) with 0.4-cm electrode cuvettes (Bio-Rad). Cells were electroporated with 10 μg of SalI-linearized pUC19-3′HXB2D (SalI-XbaI fragment of pHXB2D) and 5 μg of SalI-digested SDM at 250 μF and 300 V, followed by a 30-min incubation at room temperature. Ten milliliters of fresh culture medium was then added to the suspension of transfected cells, and incubation was performed at 37° C. in a humidified atmosphere with 5% CO2. Cell cultures were monitored for the appearance of cytopathic effect (CPE). At virus breakthrough (full CPE), culture supernatant was typically harvested by centrifugation at 8 to 10 days after transfection and was stored at −80° C. for subsequent drug susceptibility determination.
as §3

HIV-1 LAI (IIIB) = assay: Assay 3: inhibitory activity on HIV replication wild type in the presence of human serum; format: cell-based; conditions: Human immunodeficiency virus 1, IIIB, 96 h; in the presence of 50% human serum, 4 days, resazurin cell viability
Procedure: Assay 3—Inhibitory Activity on HIV Replication Wild Type in the Presence of Human Serum
For the Antiviral assay in the presence of 50% human serum MT-4-LTR-EGFP cells were infected with HIV-1 LAI (IIIB) at a MOI of 0.001 to 0.01 CCID50/cell in RPMI1640 medium. Following 1 h of incubation, cells were washed and plated into a 96-well plate containing serial dilutions of compound in the presence of 10% fetal calf serum (FCS), or 50% human serum. After 4 days incubation, the EC50 in the presence of 50% human serum (EC50/HS—see Table 1) was determined by a cell viability assay using resazurin (as described by Fields, R. D., and M. V. Lancaster (1993) Am. Biotechnol. Lab. 11:48-50).

[4] = tested on: HIV-1 site-directed mutant strain Q148R; assay: Assay 1: inhibitory activity on HIV replication, Q148R mutant (MT4-LTR-EGFP cells); format: cell-based; conditions: Human immunodeficiency virus 1, 72 h, read-out: Q148R EC50
Text: as §1, §2, §4, §5, §3

[5] = 3'-processing, 150 nM integrase, 100 nM LEDGF, 50 nM U5 LTR substrate, 2 h at 37° C., read-out: IC50

Row | Structure (SMILES) | IC50 [1, 5] [nM] | EC50 (HIV-1 IIIB) [nM] | CC50 at 3 days [2] [nM] | EC50 [3] [nM] | EC50 (HIV-1 LAI (IIIB)) [nM] | EC50 [4] [nM] | IC50 [1] [nM]
1 | O=C1NCCCCCCNc2nc(c(O)c3ncccc23)C(=O)NCc2ccc(F)cc21 [Compound 1] | 950 | 17 | 20700 | 420 | 35 | 350 | –
2 | O=C1NCCCNc2nc(c(O)c3ncccc23)C(=O)NCc2ccc(F)cc21 [Compound 2] | – | 8900 | 61000 | – | – | 36700 | 68000
3 | O=C1NCCCCNc2nc(c(O)c3ncccc23)C(=O)NCc2ccc(F)cc21 [Compound 3] | – | 1060 | > 98000 | – | – | 28000 | –
4 | O=C1NCCCCCNc2nc(c(O)c3ncccc23)C(=O)NCc2ccc(F)cc21 [Compound 4] | – | 71 | > 31000 | 1900 | 130 | 7200 | –
5 | O=C1NCCCCCCCNc2nc(c(O)c3ncccc23)C(=O)NCc2ccc(F)cc21 [Compound 5] | 1000 | 17 | 7700 | 390 | 51 | 440 | –
6 | CN1c2nc(c(O)c3ncccc23)C(=O)NCc2ccc(F)cc2C(=O)NCCCCCS1(=O)=O [Compound 6] | 250 | 4 | 27700 | 83 | 3 | 8 | –
7 | CN1c2nc(c(O)c3ncccc23)C(=O)NCc2ccc(F)cc2C(=O)NCCCCS1(=O)=O [Compound 7] | 360 | 4 | 13300 | 260 | 3 | 20 | –
8 | O=C1NCCCCN2CCN(CC2)c2nc(c(O)c3ncccc23)C(=O)NCc2ccc(F)cc21 [Compound 8] | 1200 | 18 | 3100 | 1900 | 18 | 850 | –
9 | O=C1NCCCN2CCN(CC2)c2nc(c(O)c3ncccc23)C(=O)NCc2ccc(F)cc21 [Compound 9] | 1600 | 17 | 43000 | 1510 | 25 | 460 | –
10 | O=C1NCc2ccc(F)cc2OCCCCC(=O)N2CCN(CC2)c2nc1c(O)c1ncccc21 [Compound 10] | – | 3 | > 24000 | 110 | 27 | 39 | –
11 | CN1c2nc(c(O)c3ncccc23)C(=O)NCc2ccc(F)cc2OCCCCS1(=O)=O [Compound 11] | – | 5 | > 24000 | 310 | 16 | 24 | –
12 | CN1c2nc(c(O)c3ncccc23)C(=O)NCc2ccc(F)cc2OCCCCCS1(=O)=O [Compound 12] | 200 | 1 | > 98000 | 170 | 40 | 12 | –
